The subject of experiment [1] is Campylobacter. The experiment is described as follows: Campylobacter carriage in chickens (cfu/g of droppings and caeca samples). It is filed as in vivo. Conditions: days 0-42, dirty litter challenge. The protocol:
A study was performed to evaluate growth promotion and reduction of Campylobacter carriage using FeQ and FeTyr in Ross 308 male broilers with 7 treatment groups. Each treatment group comprised four replicates of 10 birds per pen (40 birds/treatment group and 4 pens of 10 birds/treatment group), and there were 2 control groups and 5 test groups. All the test groups and one of the control groups were exposed at day 20 of the trial to dirty litter, which tested positive for Campylobacter. This method was used to provide a more natural method to Campylobacter challenge the birds. Thus there was a positive control where one treatment group was challenged with Campylobacter and one negative control group where the birds were not challenged, and five treatment groups that were all challenged with Campylobacter. The total number of birds used in the 7 treatment groups was 280. Treatment group 1 was a negative control where birds just received the commercial feed, and were not challenged with dirty litter containing Campylobacter. Treatment group 2 was the positive control where the birds received the commercial feed, and were challenged with dirty litter containing Campylobacter at day 20. Treatment group 3 received 0.22 g/L of FeQ in their drinking water and 0.22 g/Kg FeQ in their feed during the entire trial, and was challenged with dirty litter containing Campylobacter at day 20. Treatment group 5 received 0.22 g/L of FeQ in their drinking water during the entire trial, and was challenged with dirty litter containing Campylobacter at day 20. Treatment group 6 received 0.22 g/kg FeQ in their feed during the entire trial, and was challenged with dirty litter containing Campylobacter at day 20. […]
Prior to challenging the chickens with dirty litter containing Campylobacter at day 20, each pen was tested for Campylobacter using cloacal swabs. […] Samples were analyzed for blood chemistry, including analysis for alkaline phosphatase, aspartate amino transferase, alanine amino transferase, gamma-glutamyl transferase, lactate dehydrogenase, total protein, albumin, globulin, amylase and glucose.

Experiment [2] concerns mixed population of clinical isolates (PAO Mixed). The experiment is described as follows: Growth (OD600) in LB with Amikacin, tolerance to antibiotic. It counts as cell-based, Pseudomonas aeruginosa. Conditions: 34, 100, 200 and 340 μM of FeQ or FePhe; Amikacin 10 µg/ml; 17.5 hours at 37° C. The method, then: To investigate effects upon antibiotic resistance, a laboratory strain of Psuedomonas aeruginosa (PAO1N) and a mixed population of clinical isolates (PAO Mixed) were incubated in Luria-Bertani (LB) media alone, or with different concentrations (34 μM, 100 μM, 200 μM and 340 μM) of FeQ or FePhe.
Each of the different media, bar one control, contained 10 µg/ml of the aminoglycoside antibiotic Amikacin.
10 μl of the bacterial strains were added into each well of a 96-well micro-titer plate, before 290 μl of the relevant media was added to wells. Each different condition was repeated in sextuplicate.
The plate was incubated at 37° C. within a micro-titer plate reader for 17.5 hours, with the OD600 read every 30 minutes.

Experiment [3] concerns Pseudomonas aeruginosa. The experiment is described as follows: Planktonic growth rate in RPMI-1640. It counts as cell-based. Conditions: Fe-QA 100 μM. The method, then: The growth rate of Uropathogenic E. coli UPEC-536 in RPMI-1640 media over a period of 24 hours was compared to the growth rate of UPEC in RPMI-1640 media, but in the presence of 100 μM Fe-QA. The growth rate of Pseudomonas aeruginosa in RPMI-1640 media was also compared to the growth rate of Pseudomonas aeruginosa in RPMI-1640 media, but in the presence of 100 μM Fe-QA.

The subject of experiment [4] is Pseudomonas aeruginosa PAO-1. As to the kind of experiment: Biofilm coverage rate on glass slides (SYTO17, laser scanning microscopy). Conditions: Fe-QA 100 μM; 72 hours. It is filed as cell-based. The protocol: (§1) Pseudomonas aeruginosa PAO-1, and a clinically isolated uropathogenic Escherichia coli UPEC-536 were routinely grown on either LB (Luria-Bertani, Oxoid, UK) agar plates at 37° C. or in broth at 37° C. with 200 rpm shaking. UV-sterilized glass slides were incubated in either 15 mL RPMI-1640 defined medium (Sigma, UK) or 15 mL RPMI-1640 with Fe-QA inoculated with diluted (OD600=0.01) bacteria from overnight cultures at 37° C. with 60 rpm shaking for 72 hours. The slides were removed from bacterial culture and washed with 15 mL phosphate buffered saline at room temperature for 5 minutes three times and then rinsed with distilled H2O. After washing, the slides were stained with 20 μM SYTO17 dye (Invitrogen, UK) at room temperature for 30 minutes. After removing excess staining dye and air-drying, the samples were examined using a Carl Zeiss LSM 700 Laser Scanning Microscope with ZEN 2009 imaging software (Carl Zeiss, Germany). The coverage rate of bacteria on the surface was analysed using open source Image J 1.44 software (National Institute of Health, US).

Experiment [5] deals with uropathogenic Escherichia coli UPEC-536. Described as above. It counts as cell-based. Conditions: Fe-QA 0.1 μM, 1 μM, aM and 100 μM; 72 hours. The protocol: as §1
For experiment [6], the system named is Enteropathogenic E. coli (EPEC) E2348/69. As to the kind of experiment: Crystal violet assay of attachment to plastic wells. It is filed as cell-based, Escherichia coli. Conditions: FeQ 100 μM; 48 hours at 37° C. The protocol: Enteropathogenic E. coli (EPEC) E2348/69 were grown in wells for 48 hours at 37° C. in the presence of FeQ (100 μM), and in the absence of FeQ (as control). After 48 hours, the wells were washed in order to remove suspended cells. Crystal violet was then added to each well. The wells were then washed to remove excess dye. A mixture of acetone/ethanol was then added to the wells to re-suspend any cells attached to the plastic surface of the wells, and dissolve any dye present. The presence of dye in each well was then quantified by measuring the O.D. at 570 nm.
Enteropathogenic E. coli (EPEC) E2348/69 were grown in wells for 48 hours at 37° C. in the presence of FeDOPA (10-250 μM), and in the absence of FeDOPA (as control). After 48 hours, the wells were washed in order to remove suspended cells. Crystal violet was then added to each well. The wells were then washed to remove excess dye. A mixture of acetone/ethanol was then added to the wells to re-suspend any cells attached to the plastic surface of the wells, and dissolve any dye present. The presence of dye in each well was then quantified by measuring the O.D. at 570 nm.

This note sets out measurements from patent US10327423B2, “Antimicrobial compounds and compositions, and uses thereof” (Akeso Biomedical, Inc., priority 2014, dated 2019).

SMILES strings stand for the structures. Entries after “also recorded” stand apart in the source; their conditions may differ.

Consider `O=C1[O][Fe]23([O]C(=O)[C@]4(C[C@@H](O)[C@H](O)[C@H](O)C4)[O]2)([O]C(=O)[C@]2(C[C@@H](O)[C@H](O)[C@H](O)C2)[O]3)[O][C@@]12C[C@@H](O)[C@H](O)[C@H](O)C2` [FeQ, a complex of quinic acid with Fe III], for which the “Campylobacter colony forming units per gram of bird droppings at day 42” value in experiment [1] (Treatment 7: FeQ 0.022 g/L in drinking water) is given as “less of an effect than the other treatment groups”. In addition, in experiment [1] (treatment groups 3, 5, 6, 7 (FeQ) and 8 (FeTyr)), the “average Campylobacter cfu/g of caeca samples at day 42 versus positive control” value is “lower levels of Campylobacter in their caeca; also recorded: performed better than the positive control”. In addition, in experiment [2], the “tolerance to the aminoglycoside Amikacin (OD600 growth)” value is on record as “reducing tolerance”. Further, the planktonic growth rate entry in experiment [3] is reported as “does not inhibit the growth”. Moreover, the “biofilm formation (coverage rate on glass slide)” value in experiment [4] and in experiment [5] was “inhibits” each time. Further, in experiment [6], the “attachment of EPEC cells to plastic well surface and biofilm formation (crystal violet, O.D. 570 nm)” value was “little or no attachment of bacterial cells to the surface and no biofilm formation”.
